{"source": "patent US20250222021A1", "about": "“METHOD OF TREATING ACID-BASE DISORDERS” (Renosis, Inc., priority 2017, published 2025)", "origin": "cited, not measured here", "test_system": "adult patients with CKD and serum bicarbonate 16 to 20 mmol/L", "settings": "2 years"}
{"smiles": "O=C([O-])O.[Na+]", "note": "[sodium bicarbonate]", "values": [{"measurement": "Patients who developed ESRD", "value": 6.5, "unit": "%"}, {"measurement": "Patients with rapid progression (rapid decline of CrCl >3 ml/min per 1.73 m^2/yr)", "value": 9, "unit": "%"}, {"measurement": "Relative risk of ESRD versus control", "value": 0.13}, {"measurement": "Relative risk of rapid progression versus control", "value": 0.15}, {"measurement": "Decrease in creatinine clearance (CrCl)", "setting": "average 1.82 g/day bicarbonate", "value": 1.88, "unit": "ml/min per 1.73 m^2"}]}
